Experimental findings from patent publication EP0830600B1, “FUNCTIONAL BIOASSAY FOR G-PROTEIN COUPLED RECEPTOR AGONISTS AND ANTAGONISTS” (Praecis Pharmaceuticals Incorporated, priority 1995, dated 1996) are described below.

The subject of test [1] is untransfected CHO DUKX B 1 cells. As to the kind of experiment: MTT cell viability, control untransfected CHO cells. Format: cell-based, Chinese Hamster. Particulars: carbachol or pirenzepine; 5 days; Figure 2A.
Test [2] deals with T1, human β2-adrenergic receptor (Homo sapiens, UniProt P07550).
T1 construct: expressed in transfected cells
The test is described as follows: Cell morphology (photomicroscopy) of β2-adrenergic receptor-expressing cell line. Format: cell-based. Particulars: several days. The protocol:
Several days later, cells were analyzed by photomicroscopy to determine the effect of treatment on cell morphology. […] Assessment of the agonist or antagonist properties of individual compounds or libraries of compounds can be achieved by, for example, microscopic observation of the cells, or alternatively, by video digitizing techniques to quantify cell shape changes and/or cell alignment changes.

In a further test the test system is untransfected CHO cells. As to the kind of experiment: Cell morphology, control untransfected CHO cells. Particulars: cells not expressing the recombinant β2-adrenergic receptor. Format: cell-based, Chinese Hamster. The protocol:
. Several days later, cells were analyzed by photomicroscopy to determine the effect of treatment on cell morphology. […]. Salbutamol induced both a change in cell shape (i.e., elongation of the cells) and an alignment of the cells with each other. […]. Assessment of the agonist or antagonist properties of individual compounds or libraries of compounds can be achieved by, for example, microscopic observation of the cells, or alternatively, by video digitizing techniques to quantify cell shape changes and/or cell alignment changes. […]

T1 sequence (P07550 whole entry): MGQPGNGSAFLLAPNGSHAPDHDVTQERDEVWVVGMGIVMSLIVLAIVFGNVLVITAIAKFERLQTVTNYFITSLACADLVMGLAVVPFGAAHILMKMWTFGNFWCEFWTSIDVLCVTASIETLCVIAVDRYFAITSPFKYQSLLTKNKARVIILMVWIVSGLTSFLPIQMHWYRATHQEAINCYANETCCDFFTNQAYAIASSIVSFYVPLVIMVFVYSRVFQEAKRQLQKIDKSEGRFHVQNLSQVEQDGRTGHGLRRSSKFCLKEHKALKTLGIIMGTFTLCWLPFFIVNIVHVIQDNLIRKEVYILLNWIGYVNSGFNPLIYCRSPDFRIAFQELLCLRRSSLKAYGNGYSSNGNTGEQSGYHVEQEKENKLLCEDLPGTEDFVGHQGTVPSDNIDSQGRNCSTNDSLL

Turning to `CN1CCN(CC(=O)N2c3ccccc3C(=O)Nc3cccnc32)CC1` [pirenzepine], the “viability of untransfected CHO cells (MTT)” value in test [1] is “little effect”.
Still for that read-out and setting: then `C[N+](C)(C)CCOC(N)=O` [carbachol], with “little effect”.
On to `COc1ccc(OC)c(C(O)C(C)NC(C)(C)C)c1` (centres unmarked) [butoxamine], for which the “cell morphology, antagonism of salbutamol effect” value in test [2] (10 nM butoxamine together with salbutamol) is given as “indistinguishable from control cells”. Further, the “effect of treatment on cell morphology (cell shape and alignment)” value in test [2] (compound alone (salbutamol 1 nM), photomicroscopy, Figure 4) is listed as “no detectable change in cell shape or alignment”.
For the compound `CC(C)(C)NCC(O)c1ccc(O)c(CO)c1` (centres unmarked) [salbutamol], the “change in cell shape or alignment on untransfected CHO cells” value with untransfected CHO cells is “no detectable change in cell shape or alignment”.
